In assay [1] the target is T1, BTK (Homo sapiens (Human), UniProt Q06187). Put plainly: In Vitro BTK Kinase Assay: BTK-POLYGAT-LS ASSAY. Format: biochemical. As to conditions: fluorescein-labeled polyGAT peptide 100 nM, BTK enzyme 0.25 nM, 30 minutes, TRF. Here is the method:
In Vitro BTK Kinase Assay: BTK-POLYGAT-LS ASSAY
The purpose of the BTK in vitro assay is to determine compound potency against BTK through the measurement of IC50. […] For a typical assay, a […] aliquot of a ATP/peptide master mix (final concentration; ATP […], polyGAT 100 nM) in kinase buffer (10 mM Tris-HCl pH 7.5, 10 mM MgCl2, 200 μM Na3PO4, 5 mM DTT, 0.01% Triton X-100, and 0.2 mg/ml casein) is added to each well. […] The assay is incubated for 30 minutes before being stopped with 28 μL of a 50 mM EDTA solution. […] The plate is covered and incubated for 45 minutes at room temperature. Time resolved fluorescence (TRF) on Molecular Devices M5 (332 nm excitation; 488 nm emission; 518 nm fluorescein emission) is measured.

For assay [2], the target named is T1, BTK. Put plainly: In Vitro PD Assay in Human Whole Blood (pBTK assay). Format: cell-based. Particulars: human heparinized whole blood, 37° C. for 30 min, total BTK capture and phosphotyrosine detection (ECL). Here is the method:
In Vitro PD Assay in Human Whole Blood
Human heparinized venous blood was purchased from Bioreclamation, Inc. or SeraCare Life Sciences and shipped overnight. Whole blood was aliquoted into 96-well plate and “spiked” with serial dilutions of test compound in DMSO or with DMSO without drug. The final concentration of DMSO in all wells was 0.1%. The plate was incubated at 37° C. for 30 min. Lysis buffer containing protease and phosphatase inhibitors was added to the drug-containing samples and one of the DMSO-only samples (+PPi, high control), while lysis buffer containing protease inhibitors was added to the other DMSO-only samples (−PPi, low control). All of the lysed whole blood samples were subjected to the total BTK capture and phosphotyrosine detection method described in US20160311802, incorporated herein by reference.

Each structure is given as a SMILES string.

T1 sequence (Q06187 whole entry): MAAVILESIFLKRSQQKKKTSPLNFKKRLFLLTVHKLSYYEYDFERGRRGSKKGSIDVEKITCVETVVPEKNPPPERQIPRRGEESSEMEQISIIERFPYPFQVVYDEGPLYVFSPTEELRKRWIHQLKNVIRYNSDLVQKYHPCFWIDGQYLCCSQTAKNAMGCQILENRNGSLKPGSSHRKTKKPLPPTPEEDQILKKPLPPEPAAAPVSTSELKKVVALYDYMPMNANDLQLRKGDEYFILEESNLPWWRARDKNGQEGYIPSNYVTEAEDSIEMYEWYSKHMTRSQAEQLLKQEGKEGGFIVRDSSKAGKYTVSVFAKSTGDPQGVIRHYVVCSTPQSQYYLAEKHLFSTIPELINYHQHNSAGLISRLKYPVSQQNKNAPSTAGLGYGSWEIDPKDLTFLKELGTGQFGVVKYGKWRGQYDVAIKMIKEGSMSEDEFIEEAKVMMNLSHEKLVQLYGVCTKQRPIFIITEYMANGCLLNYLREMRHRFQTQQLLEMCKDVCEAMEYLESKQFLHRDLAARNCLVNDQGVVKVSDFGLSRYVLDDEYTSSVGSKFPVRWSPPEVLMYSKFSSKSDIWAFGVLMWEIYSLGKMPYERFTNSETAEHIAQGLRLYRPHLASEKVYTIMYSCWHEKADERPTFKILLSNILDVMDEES

Usually IC50 stands for the concentration that inhibits the measured activity by half. A high value points to weaker potency. For the compound `Cn1ccc(Nc2ncnc(-c3ccc(CNC(=O)c4nc(C(C)(C)C)no4)c(C(F)(F)F)c3F)n2)n1` [Compound 20, 3-(tert-butyl)-N-(3-fluoro-4-(4-((1-methyl-1H-pyrazol-3-yl)amino)-1,3,5-triazin-2-yl)-2-(trifluoromethyl)benzyl)-1,2,4-oxadiazole-5-carboxamide], the IC50 against BTK [1] is less than 1 nM; against BTK [2], 500 to 10000 nM.

At BTK [2], `Cn1cc(Nc2ncnc(-c3ccc4c(c3)CN(C3COC3)CC[C@H]4NC(=O)c3cn(C(C)(C)C)nn3)n2)cn1` [Compound 24, 1-tert-butyl-N-[(5R)-8-[4-[(1-methylpyrazol-4-yl)amino]-1,3,5-triazin-2-yl]-2-(oxetan-3-yl)-1,3,4,5-tetrahydro-2-benzazepin-5-yl]triazole-4-carboxamide] yielded a 50% inhibitory concentration (IC50) of less than 100 nM.

`Cc1cc(-c2ncnc(Nc3cnn(C)c3)n2)ccc1CNC(=O)c1cc(C(C)(C)C)on1` [Compound 38] had an IC50 against BTK [2] of 100 to 500 nM. `C[C@@H](NC(=O)c1nc(C(C)(C)C)no1)c1ccc(-c2ncnc(Nc3ccn(C)n3)n2)c(F)c1Cl` [Compound 102, (R)-3-(tert-butyl)-N-(1-(2-chloro-3-fluoro-4-(4-((1-methyl-1H-pyrazol-3-yl)amino)-1,3,5-triazin-2-yl)phenyl)ethyl)-1,2,4-oxadiazole-5-carboxamide]: the IC50 against BTK [1] is less than 1 nM; against BTK [2], 500 to 10000 nM. Taken in the same sequence, the figures for `Cn1cc(Nc2ncnc(-c3ccc4c(c3)CN(CC(F)(F)F)CC[C@H]4NC(=O)c3nc(C(C)(C)C)co3)n2)cn1` [Compound 93, 4-tert-butyl-N-[(5R)-8-[4-[(1-methylpyrazol-4-yl)amino]-1,3,5-triazin-2-yl]-2-(2,2,2-trifluoroethyl)-1,3,4,5-tetrahydro-2-benzazepin-5-yl]oxazole-2-carboxamide] were less than 1 nM and less than 100 nM.

On to `Cc1cc(-c2ncnc(Nc3ccn(C)n3)n2)ccc1CNC(=O)c1nc(C(C)(C)C)no1` [Compound 2, 3-(tert-butyl)-N-(2-methyl-4-(4-((1-methyl-1H-pyrazol-3-yl)amino)-1,3,5-triazin-2-yl)benzyl)-1,2,4-oxadiazole-5-carboxamide], for which the figures for the IC50 on BTK [1] and against BTK [2] were less than 1 nM and 500 to 10000 nM, respectively. On the same counts, the results for `Cc1cc(-c2ncnc(Nc3cnn(C)c3)n2)c(F)cc1CNC(=O)c1cc(C(C)(C)C)on1` [Compound 64, 5-(tert-butyl)-N-(5-fluoro-2-methyl-4-(4-((1-methyl-1H-pyrazol-4-yl)amino)-1,3,5-triazin-2-yl)benzyl)isoxazole-3-carboxamide] are less than 1 nM and 500 to 10000 nM. On the same counts, the results for `Cc1c(CNC(=O)c2cn(C(C)(C)C)nn2)ccc(-c2ncnc(Nc3cnn(C)c3)n2)c1F` [Compound 105, 1-(tert-butyl)-N-(3-fluoro-2-methyl-4-(4-((1-methyl-1H-pyrazol-4-yl)amino)-1,3,5-triazin-2-yl)benzyl)-1H-1,2,3-triazole-4-carboxamide] are less than 1 nM and 100 to 500 nM. Taken in the same sequence, the figures for `Cc1cc(-c2ncnc(Nc3cnn(C)c3)n2)c(F)cc1CNC(=O)c1noc(C2(CF)CC2)n1` [Compound 51, N-(5-fluoro-2-methyl-4-(4-((1-methyl-1H-pyrazol-4-yl)amino)-1,3,5-triazin-2-yl)benzyl)-5-(1-(fluoromethyl)cyclopropyl)-1,2,4-oxadiazole-3-carboxamide] were less than 1 nM and 100 to 500 nM. Consider `Cn1cc(Nc2ncnc(-c3ccc(CNC(=O)c4noc(C5(C)CC5)n4)c(Cl)c3F)n2)cn1` [Compound 30, N-(2-chloro-3-fluoro-4-(4-((1-methyl-1H-pyrazol-4-yl)amino)-1,3,5-triazin-2-yl)benzyl)-5-(1-methylcyclopropyl)-1,2,4-oxadiazole-3-carboxamide], for which the IC50 on BTK [1] is less than 1 nM; at BTK [2], less than 100 nM. `Cc1cc(-c2ncnc(Nc3cnn(C)c3)n2)c(F)cc1CNC(=O)c1coc(C(C)(C)C)n1` [Compound 65, 2-(tert-butyl)-N-(5-fluoro-2-methyl-4-(4-((1-methyl-1H-pyrazol-4-yl)amino)-1,3,5-triazin-2-yl)benzyl)oxazole-4-carboxamide]: the IC50 is less than 1 nM on BTK [1] and 500 to 10000 nM against BTK [2]. On the same counts, the results for `Cc1c(CNC(=O)c2nc(C(C)(C)C)no2)ccc(-c2ncnc(Nc3cnn(C)c3)n2)c1F` [Compound 14, 3-(tert-butyl)-N-(3-fluoro-2-methyl-4-(4-((1-methyl-1H-pyrazol-4-yl)amino)-1,3,5-triazin-2-yl)benzyl)-1,2,4-oxadiazole-5-carboxamide] are less than 1 nM and less than 100 nM.

At BTK [2], `C[C@@H](NC(=O)c1nc(C(C)(C)C)no1)c1ccc(-c2ncnc(Nc3cnn(C)c3)n2)c(F)c1Cl` [Compound 70, (R)-3-(tert-butyl)-N-(1-(2-chloro-3-fluoro-4-(4-((1-methyl-1H-pyrazol-4-yl)amino)-1,3,5-triazin-2-yl)phenyl)ethyl)-1,2,4-oxadiazole-5-carboxamide] yielded an IC50 of less than 100 nM.

At BTK [1], `Cn1cc(Nc2ncnc(-c3ccc(CNC(=O)c4nc(C(C)(C)C)no4)c(C(F)(F)F)c3)n2)cn1` [Compound 18, 3-(tert-butyl)-N-(4-(4-((1-methyl-1H-pyrazol-4-yl)amino)-1,3,5-triazin-2-yl)-2-(trifluoromethyl)benzyl)-1,2,4-oxadiazole-5-carboxamide] yielded an IC50 of less than 1 nM.

In the case of `Cc1cc(-c2ncnc(Nc3cnn(C)c3)n2)ccc1CNC(=O)c1nnc(C(C)(C)C)o1` [Compound 110, 5-(tert-butyl)-N-(2-methyl-4-(4-((1-methyl-1H-pyrazol-4-yl)amino)-1,3,5-triazin-2-yl)benzyl)-1,3,4-oxadiazole-2-carboxamide], the IC50 on BTK [1] fell in the range of 1 to 10 nM. As for `Cn1ccc(Nc2ncnc(-c3ccc(CNC(=O)c4nc(C(C)(C)C)no4)c(C(F)(F)F)c3)n2)n1` [Compound 8, 3-(tert-butyl)-N-(4-(4-((1-methyl-1H-pyrazol-3-yl)amino)-1,3,5-triazin-2-yl)-2-(trifluoromethyl)benzyl)-1,2,4-oxadiazole-5-carboxamide], at BTK [1], the IC50 was in the range of 1 to 10 nM. Same read-out and setting: the figure for `Cn1ccc(Nc2ncnc(-c3ccc(CNC(=O)c4noc(C(C)(C)C)n4)c(C(F)(F)F)c3F)n2)n1` [Compound 19, 5-(tert-butyl)-N-(3-fluoro-4-(4-((1-methyl-1H-pyrazol-3-yl)amino)-1,3,5-triazin-2-yl)-2-(trifluoromethyl)benzyl)-1,2,4-oxadiazole-3-carboxamide] is 1 to 10 nM.

For `Cc1cc(-c2ncnc(Nc3cnn(C)c3)n2)ccc1CNC(=O)c1noc(C2[C@@H](C)[C@H]2C)n1` (stereo partly drawn) [Compound 41, 5-(2,3-cis-dimethylcyclopropyl)-N-(2-methyl-4-(4-((1-methyl-1H-pyrazol-4-yl)amino)-1,3,5-triazin-2-yl)benzyl)-1,2,4-oxadiazole-3-carboxamide], the IC50 against BTK [2] lay within 500 to 10000 nM.

Compound `Cn1ccc(Nc2ncnc(-c3ccc4c(c3)CN(CC(F)(F)F)CC[C@H]4NC(=O)c3noc(C(C)(C)C)n3)n2)n1` [Compound 25, 5-tert-butyl-N-[(5R)-8-[4-[(1-methylpyrazol-3-yl)amino]-1,3,5-triazin-2-yl]-2-(2,2,2-trifluoroethyl)-1,3,4,5-tetrahydro-2-benzazepin-5-yl]-1,2,4-oxadiazole-3-carboxamide] registered an IC50 at BTK [2] of less than 100 nM. `Cn1ccc(Nc2ncnc(-c3ccc(CNC(=O)c4noc(C(C)(C)C)n4)c(CC(F)F)c3)n2)n1` [Compound 67, 5-(tert-butyl)-N-(2-(2,2-difluoroethyl)-4-(4-((1-methyl-1H-pyrazol-3-yl)amino)-1,3,5-triazin-2-yl)benzyl)-1,2,4-oxadiazole-3-carboxamide] displayed a concentration for half-maximal inhibition (IC50) at BTK [1] of 1 to 10 nM. At BTK [1], `C[C@@H](NC(=O)c1nc(C(C)(C)C)no1)c1ccc(-c2ncnc(Nc3ccn(C)n3)n2)c(F)c1C(F)F` [Compound 83, (R)-3-(tert-butyl)-N-(1-(2-(difluoromethyl)-3-fluoro-4-(4-((1-methyl-1H-pyrazol-3-yl)amino)-1,3,5-triazin-2-yl)phenyl)ethyl)-1,2,4-oxadiazole-5-carboxamide] returned an IC50 of 1 to 10 nM. Still for that read-out and setting: the figure for `Cc1c(CNC(=O)c2nc(C(C)(C)C)no2)ccc(-c2ncnc(Nc3ccn(C)n3)n2)c1F` [Compound 10, 3-(tert-butyl)-N-(3-fluoro-2-methyl-4-(4-((1-methyl-1H-pyrazol-3-yl)amino)-1,3,5-triazin-2-yl)benzyl)-1,2,4-oxadiazole-5-carboxamide] is less than 1 nM. On the same count and under the same terms, for `Cn1ccc(Nc2ncnc(-c3ccc(CNC(=O)c4noc(C(C)(C)C)n4)c(C(F)(F)F)c3)n2)n1` [Compound 7, 5-(tert-butyl)-N-(4-(4-((1-methyl-1H-pyrazol-3-yl)amino)-1,3,5-triazin-2-yl)-2-(trifluoromethyl)benzyl)-1,2,4-oxadiazole-3-carboxamide] the value was 1 to 10 nM.

(Values after patent US10899753B2, “Inhibiting agents for Bruton's tyrosine kinase” (BIOGEN MA INC., priority 2018, dated 2021).)
